From ChEMBL document CHEMBL1154198, “Chemical genetics of Plasmodium falciparum” (Nature, 2010)

How the values were obtained:
[1] = system: Plasmodium falciparum; assay: ST_JUDE: Plasmodium falciparum 3D7 EC50 (uM) as measured by SYBR green dye; format: functional, organism-based
[2] = system: Plasmodium falciparum; assay: ST_JUDE: Plasmodium falciparum K1 EC50 (uM) as measured by SYBR green dye; format: functional, organism-based

| Structure (SMILES) | EC50 [1] | EC50 [2] |
| --- | --- | --- |
| CC(=O)NC1=C(Cl)C(=O)c2ccccc2C1=O | 4.04 µM | 2.21 µM |
| COc1ccc(-c2cc(=O)n(-c3ccc([N+](=O)[O-])cc3)[nH]2)cc1 | > 15 µM | > 15 µM |
| CCN(CC)CCCNc1nc2cc(OC)c(OC)cc2c2nc(-c3ccccc3)nn12 | > 15 µM | > 15 µM |
| O=C(Nc1cccc(Cl)c1)c1cc2ccccc2cc1O | > 15 µM | 0.568 µM |
| Oc1ccc(-c2nc(-c3ccc4oc5ccc(-c6[nH]c(-c7ccc(O)cc7)nc6-c6ccccc6)cc5c4c3)c(-c3ccccc3)[nH]2)cc1 | 8.11 µM | 2.99 µM |
| COc1ccc(C2C(C(=O)Nc3ccc(C)cc3Br)c3ccccc3C(=O)N2C)cc1 (configuration not stated) | 3.46 µM | 3.77 µM |
| O=C(c1ccc(Cl)cc1Cl)N1CCCC(C(F)(F)F)C1 (configuration not stated) | 1.46 µM | > 15 µM |
| CN(C)c1ccc(C2N(C)c3ccccc3N2C)cc1 | 4.27 µM | 4.44 µM |
| CCOC(=O)c1ccc(NC2=C(N3CCCCC3)C(=O)c3ccccc3C2=O)cc1 | 0.0422 µM | 0.111 µM |
| COc1cc(CN(Cc2cccnc2)C(=O)c2[nH]c3ccc(Cl)cc3c2C)ccc1OC1CCOC1 (configuration not stated) | > 15 µM | > 15 µM |
| C[n+]1ccccc1/C=C1\Sc2ccccc2N1CCC(=O)O | 7.63 µM | 3.01 µM |
| Cc1ccc(Nc2cc(C)nc(Nc3ccc(NS(=O)(=O)c4cccc(Cl)c4)cc3)n2)cc1 | 1.46 µM | > 15 µM |
| CCCCCOCC1CC2(CC(C)(c3csc(Nc4ccccc4Cl)n3)OC2=O)C(=O)O1 (configuration not stated) | > 15 µM | > 15 µM |
| CCN(CC)CCNC(=O)c1ccc(Cn2c(SCc3cccc(C)c3)nc3ccncc32)cc1 | 6.75 µM | > 15 µM |
| Cc1cccc(/C=C/c2ccc3cccc(O)c3n2)c1O | 4.68 µM | 1.33 µM |
| CCOc1ccc(-c2nonc2NC(=O)c2ccccc2C)cc1OCC | > 15 µM | 1.38 µM |
| Cc1ccc(O)c(Nc2nc(-c3ccccc3)nc3ccccc23)c1 | 3.83 µM | 1.31 µM |
| CCCc1cc(O)nc(-n2nc(C)cc2NC(=O)c2ccccc2F)n1 | > 15 µM | > 15 µM |
| COc1ccccc1N1CCN(Cc2cc(Cl)c3cccnc3c2O)CC1 | 3.34 µM | 2.36 µM |
| CC1=C/C(=N\OC(=O)c2ccc(Br)cc2)C=CC1=O | > 15 µM | > 15 µM |
| Cc1ccc2oc(-c3cccc(NC(=O)C(Cl)(Cl)Cl)c3C)nc2c1 | > 15 µM | 1.59 µM |
| CCc1ccccc1Nc1nc(-c2cccnc2)cs1 | > 15 µM | > 15 µM |

| Structure (SMILES) | EC50 [1] | EC50 [2] |
| --- | --- | --- |
| COc1cc(NC(=O)COc2cc(C)c(Cl)c(C)c2)cc(OC)c1 | > 15 µM | > 15 µM |
| CCc1ccc(CNCC(O)c2ccccc2)cc1 (configuration not stated) | 2.17 µM | 1.37 µM |
| CCCCN(CC)CCCNC(=O)Cn1ncc2c3ccccc3n(Cc3ccccc3)c2c1=O | > 15 µM | > 15 µM |
| COc1ccccc1CNC(=O)C1c2ccccc2C(=O)N(CC(C)C)C1c1cccs1 (configuration not stated) | 3.16 µM | 3.7 µM |
| CCN(CC)CCn1c(=N)n(CC(O)COc2ccc(Cl)cc2Cl)c2ccccc21 (configuration not stated) | 0.954 µM | 2.88 µM |
| Oc1cccc2ccc(/C=C/c3ccccc3Br)nc12 | > 15 µM | 9.71 µM |
| CCOC(=O)C1=C(C)N=c2s/c(=C\c3cc(Cl)ccc3O)c(=O)n2C1c1ccc(Cl)cc1 (configuration not stated) | > 15 µM | > 15 µM |
| Cc1cccc(OCC(=O)Nc2cccc(-c3nnc(-c4ccccc4)o3)c2)c1 | > 15 µM | > 15 µM |
| CCN(CCN(C)C)C(=O)c1csc(-c2ccc(OC(F)(F)F)cc2)n1 | 4.51 µM | > 15 µM |
| Cc1ccc(S(=O)(=O)Nc2cc(Sc3nc[nH]n3)c(O)c3ccccc23)c(C)c1 | 3.67 µM | 5.53 µM |
| CC(C)(CO)CN1CCC(C(=O)Nc2ccc(-c3nc4ccccc4[nH]3)cc2)CC1 | 6.81 µM | > 15 µM |
| CC1CCN(CCCNc2cc(NCCO)c([N+](=O)[O-])c3nonc23)CC1 | > 15 µM | > 15 µM |
| CCCc1cc(O)nc(-n2nc(C)cc2NC(=O)COc2ccc(OC)cc2)n1 | > 15 µM | > 15 µM |
| O=C(Nc1cccc(Cl)c1)N1CCn2cccc2C1c1ccc(F)c(F)c1 (configuration not stated) | 10.3 µM | 6.67 µM |
| COc1ccc(C2C(C#N)=C(C(C)(C)C)Nc3ncnn32)cc1 (configuration not stated) | 8.08 µM | > 15 µM |
| CCOC(=O)c1c(NC(=O)C(c2ccccc2)c2ccccc2)sc(C(=O)N(CC)CC)c1C | > 15 µM | > 15 µM |
| Oc1c(C(Nc2ccccn2)c2ccc(Cl)cc2)ccc2cccnc12 (configuration not stated) | 2.72 µM | 4.11 µM |
| CC(C)OCCNC(=O)CC1C(=O)NCCN1Cc1cccc(C(F)(F)F)c1 (configuration not stated) | > 15 µM | > 15 µM |
| CCOC(=O)C1=C(C)N=c2s/c(=C\c3cc(Cl)ccc3O)c(=O)n2C1c1ccccc1 (configuration not stated) | > 15 µM | > 15 µM |
| COc1ccc(-c2cnnc(N/N=C/c3ccc(O)cc3)n2)cc1 | > 15 µM | > 15 µM |
| COc1ccc(N/C=C2/C(=O)N(c3ccc(OC)cc3)C(=O)c3ccccc32)cc1 | > 15 µM | > 15 µM |
| CCCC(=O)n1nc(-c2ccc(Cl)cc2)nc1NCc1ccc(OC)cc1 | > 15 µM | > 15 µM |

| Structure (SMILES) | EC50 [1] | EC50 [2] |
| --- | --- | --- |
| CCOc1cc(Br)c(C2NC(=O)NC(c3ccccc3)=C2C(C)=O)cc1OCC (configuration not stated) | 1.51 µM | > 15 µM |
| Cc1ccn2c(Nc3ccccc3)c(-c3ccccn3)nc2c1 | > 15 µM | > 15 µM |
| CCCCCCCCn1cnc2ccccc21 | > 15 µM | > 15 µM |
| CSc1ccc(C2CC(=O)NC3=C2C(=O)CC(c2ccccc2Cl)C3)cc1 (configuration not stated) | 2.21 µM | 1.17 µM |
| COc1ccc(Nc2cc(C)nc(Nc3ccc(NS(=O)(=O)c4ccc(Cl)cc4)cc3)n2)cc1 | 0.564 µM | > 15 µM |
| CC(Cc1ccccc1)NCCCCCCCCCNC(C)Cc1ccccc1 (configuration not stated) | 3.76 µM | 1.17 µM |
| CCN(CC)CCNc1nc(Nc2ccc(F)cc2)c2cnn(-c3ccccc3)c2n1 | 1.34 µM | 3.02 µM |
| Cc1c(N)cc[n+](CC(=O)c2ccccc2)c1C | > 15 µM | 5.97 µM |
| CC(C)C(=O)NC(c1ccc(Cl)cc1Cl)c1ccc2cccnc2c1O (configuration not stated) | 3.65 µM | 4.6 µM |
| COc1ccc(Cl)c2sc(N(Cc3cccnc3)C(=O)c3ccc(S(C)(=O)=O)cc3)nc12 | > 15 µM | > 15 µM |
| O=C(Nc1nc(-c2ccccn2)cs1)c1ccccc1[N+](=O)[O-] | 4.99 µM | 6.94 µM |
| CCC[N+]12CCC(CC1)C(C(=O)c1cccs1)C2 (configuration not stated) | > 15 µM | > 15 µM |
| O=C(COc1cccc(Br)c1)N/N=C/c1ccc(Br)cc1 | > 15 µM | > 15 µM |
| CCc1ccc(S(=O)(=O)Nc2ccc(Nc3nc(C)cc(N4CCCC4)n3)cc2)cc1 | 1.42 µM | > 15 µM |
| O=C(Nc1ccc(Cl)cc1)Nc1cc(Cl)cc(Cl)c1 | 3.21 µM | 1.63 µM |
| C=CCN1C(=O)c2[nH]nc(-c3c(C)cc(C)cc3O)c2C1c1ccc(OC)cc1 (configuration not stated) | 2.07 µM | 1.45 µM |
| COCCCn1c(=N)c(C(=O)NCc2cccnc2)cc2c(=O)n3cccc(C)c3nc21 | > 15 µM | > 15 µM |
| O=C1C(Sc2nc[nH]n2)=C/C(=N/S(=O)(=O)c2ccc(F)cc2)c2ccccc21 | > 15 µM | 11.9 µM |
| Cc1ccc(OCC(=O)Nc2cc(C)nn2-c2nc(C)cc(O)n2)cc1 | > 15 µM | > 15 µM |
| COc1cccc(C2=C(C(C)=O)Sc3nnc(C)n3N2C(C)=O)c1 | 6.59 µM | 5.95 µM |
| CCc1nnc(NC(=O)CCCOc2ccc(Cl)cc2)s1 | > 15 µM | > 15 µM |
| CCOC(=O)N1CCN(C(=O)CN(Cc2ccc(Cl)cc2)S(=O)(=O)c2ccc(C)cc2)CC1 | 2.53 µM | 1.32 µM |

| Structure (SMILES) | EC50 [1] | EC50 [2] |
| --- | --- | --- |
| CCc1cc2c(=O)c(Oc3ccccc3)c(C(F)(F)F)oc2cc1O | > 15 µM | > 15 µM |
| CC(=O)Oc1ccc(Cl)cc1/C=C/c1cc(OC(C)=O)c2ccccc2n1 | > 15 µM | 1.5 µM |
| CN1C(=O)C(=Cc2ccc(-c3ccc([N+](=O)[O-])cc3O)o2)C(=O)N(C)C1=O | > 15 µM | > 15 µM |
| O=C(N/N=C/c1cc(Cl)cc(Cl)c1O)NC12CC3CC(CC(C3)C1)C2 | > 15 µM | > 15 µM |
| O=C(CN1C2=NCCN2c2ccccc21)c1ccc(Cl)cc1Cl | 3.28 µM | 3.65 µM |
| CCc1c(C)nc(-n2nc(C)cc2NC(=O)c2ccc(C)c(C)c2)nc1O | > 15 µM | > 15 µM |
| Cc1ccc2nc(-c3ccc(C)c(NC(=O)C(Cl)(Cl)Cl)c3)oc2c1 | > 15 µM | 4.17 µM |
| COc1ccc(CCN2COc3c(cc4c(C)c(C)c(=O)oc4c3C)C2)cc1 | 6.95 µM | 0.802 µM |
| Cc1ccc(O)c(-n2cc3c(c2-c2cccc([N+](=O)[O-])c2)c(=O)n(C)c(=O)n3C)c1 | 4.89 µM | 4.79 µM |
| CCCN1CCC(N2CCCC(C(=O)c3ccc4cc(OC)ccc4c3)C2)CC1 (configuration not stated) | 5 µM | > 15 µM |
| COc1ccc(NC2=C/C(=N/S(=O)(=O)c3ccc(C(C)C)cc3)c3ccccc3C2=O)cc1 | 0.499 µM | 0.458 µM |
| CC(C)c1ccc(Nc2c(-c3ccccn3)nc3ccccn23)cc1 | > 15 µM | > 15 µM |
| Cc1cc(N2CCN(C)CC2)nc2ccc(NC(=O)/C=C/c3ccccc3OC(C)C)cc12 | 3.36 µM | 5.57 µM |
| CCC(C)c1ccc(NC(=O)c2ccc(Br)o2)c(O)c1 (configuration not stated) | 1.93 µM | 2.57 µM |
| CCOC(=O)c1cnc2ccc(OCC)cc2c1NCCc1ccccc1 | > 15 µM | > 15 µM |
| CCOC(=O)c1ccc(NC(=O)N2CCN(Cc3ccccc3)CC2)cc1 | > 15 µM | > 15 µM |
| O=C(NCC1Cc2cccc(-c3ccncc3)c2O1)c1csc2c1CCCC2 (configuration not stated) | 8.74 µM | > 15 µM |
| COCCN1C(=O)c2ccccc2C(C(=O)Nc2ccc(F)c(Cl)c2)C1c1cccs1 (configuration not stated) | 2.59 µM | 2.6 µM |
| COc1ccccc1C(=O)N(Cc1cccnc1)c1nc2c(Cl)cccc2s1 | > 15 µM | 6.66 µM |
| COc1ccc(C(NC(=O)c2cccnc2)c2cc(Cl)c3cccnc3c2O)cc1OC (configuration not stated) | > 15 µM | 2.66 µM |
